This passage reports XC50 results from ChEMBL document CHEMBL1157539, “Thousands of chemical starting points for antimalarial lead identification” (Nature, 2010).

The test concerns Plasmodium falciparum. In words: GSK_TCMDC: Inhibition of Plasmodium falciparum 3D7 in whole erythrocytes, using parasite LDH activity as an index of growth. The test is classed as functional, organism-based. As to conditions: Plasmodium falciparum, 3D7.
`C=CCOc1ccccc1CNCC(O)c1cccc(C(F)(F)F)c1` (stereo unspecified): the XC50 was 845 nM.

On to `O=C(Cn1c(CCc2cccc(F)c2F)nc(=O)c2cccnc21)N(Cc1ccc(-c2ccc(C(F)(F)F)cc2)cc1)C1CCN(C2CCOCC2)CC1`, for which the XC50 was 828 nM.

Take `Cc1[nH]c(C)c(-c2ccc(Oc3cccc(C(F)(F)F)c3)cc2)c(=O)c1Br`: the XC50 was 7.69 nM.

The compound `CN(CCN1CCC(c2c[nH]c3ccccc23)CC1)C(=O)OCCCCCNC(=O)/C=C/c1ccc(Cl)c(Cl)c1` showed an XC50 of 678 nM.

`CC(C)(C)CN1C(=O)C(c2ccccc2)(c2ccccc2)N=C1N` had an XC50 of 515 nM.

Take `COc1cccc(C=NNc2cc(C)nc3c(OC)cccc23)c1`: the XC50 is 578 nM.

In turn, `CCn1c(C2CCN(CCC3CCN(C(=O)/C=C/c4ccc(Cl)c(Cl)c4)CC3)CC2)nc2ccccc21` came in with an XC50 of 1080 nM.

On to `CNC(=O)CC(=O)NCCc1ccc(Cl)cc1`, for which the XC50 was 811 nM.

In turn, `COC1(C)Oc2ccc3cccc([N+](=O)[O-])c3c2C1=O` (stereo unspecified) registered an XC50 of 635 nM.

`Cc1cc(=O)c2cc(-c3ccc(OC(F)(F)F)cc3)ccc2[nH]1` returned an XC50 of 476 nM.

On to `CCCCCCCCc1nc(C)c(Br)c(O)c1Br`, for which the XC50 is 178 nM.

`COc1cccc(Nc2nccc(NCC(O)c3cccc(C(F)(F)F)c3)n2)c1` (stereo unspecified) displayed an XC50 of 702 nM.

On to `c1ccc2nc(NCCCCCCCCNc3ccc4ccccc4n3)ccc2c1`, for which the XC50 was 272 nM.

Turning to `CC(CN1CCN(C)CC1)C(=O)Nc1ccc(-c2ccc(-c3nc4ccccc4[nH]3)cc2)cc1` (stereo unspecified), the XC50 came to 954 nM.

`COc1ccc(CC(=O)Nc2ccc(-c3cccc(-c4nc5cccc(C)c5[nH]4)c3)cc2)cc1O` registered an XC50 of 452 nM.

On to `Cc1ccc(NC(=O)c2ccc(Cl)cc2)cc1-c1ccc(C(=O)Nc2ccncc2)cc1`, for which the XC50 is 779 nM.

Take `CNC(=O)C(C)N(c1ccc(Cl)cc1)c1nc(C(C)(C)C)cs1` (stereo unspecified): the XC50 was 741 nM.

Consider `c1ccc(Oc2ccc(Nc3nncc4ccccc34)cc2)cc1`, for which the XC50 is 686 nM.

`CC1(C)C(N(O)C(=O)Nc2ccc(Cl)c(Cl)c2)N(c2ccc(Cl)c(Cl)c2)C(=O)N1CCc1ccccc1` (stereo unspecified) came in with an XC50 of 823 nM.

For `O=C(Cc1c[nH]cn1)Nc1cccc(-c2cccc(-c3nc4cc(C(F)(F)F)ccc4[nH]3)c2)c1`, the XC50 is 225 nM.

The compound `COc1ccc2ccccc2c1CCCCN1CCN(CC(c2ccc(F)cc2)N2CCN(C(C)C)CC2)CC1` (stereo unspecified) gave an XC50 of 809 nM.

In turn, `c1ccc(COc2ccc(Nc3ncnc4ccc(-c5ccc(CN6CCSCC6)o5)cc34)cc2)cc1` registered an XC50 of 827 nM.

Consider `CC(C)(C)c1ccc(OCCCON2C(=N)N=C(N)NC2(C)C)c(C(C)(C)C)c1`, for which the XC50 was found to be 3.2 nM.

In turn, `Cc1cc(Nc2cccc(C(F)(F)F)c2)nc(Nc2cccc(C(F)(F)F)c2)n1` registered an XC50 of 644 nM.

The compound `CC(=O)c1ccc(-c2cccc3c(CC(=O)Nc4ccc5nccc(N6CCN(C)CC6)c5c4)cccc23)cc1` had an XC50 of 498 nM.

`Cc1nnsc1C(=O)Nc1cccc(-c2ccc(-c3nc4cccc(C)c4[nH]3)s2)c1` yielded an XC50 of 1120 nM.

Regarding `O=[N+]([O-])c1cccc(NC(=S)N2CCCN(Cc3ccc(F)cc3F)CC2)c1`, the XC50 came to 831 nM.

The compound `N#Cc1ccc(NC2(C(=O)N3CCN(c4cccc(Cl)c4)CC3)CC2)c2ccccc12` showed an XC50 of 1150 nM.

Compound `N=C(N)Nc1nc(-c2ccc(NC(=N)N3CCC[C@H]3CN3CCCC3)cc2)cs1` displayed an XC50 of 1110 nM.

The compound `c1ccc2ncc(CNCCCCCCCCNCc3cnc4ccccc4c3)cc2c1` showed an XC50 of 846 nM.

As to `CC1CN(c2ccc3occ(C(=O)Nc4ccc(-c5ccncc5)c(Cl)c4)c3c2)CC(C)N1C` (stereo unspecified), the XC50 came to 855 nM.

In the case of `O=C(/C=C/c1ccc(Cl)c(Cl)c1)NCCCCCN1CCC(CCNC(=O)c2snnc2-c2ccccc2)CC1`, the XC50 was 822 nM.

`Fc1ccc2[nH]c(-c3cccc(-c4ccc(CN5CCCCC5)cc4)c3)nc2c1` had an XC50 of 163 nM.

Compound `O=C(Nc1ccc(F)cc1F)NC1CCN(CCCCCNC(=O)C2CC2c2ccc(Cl)c(Cl)c2)CC1` (stereo unspecified) registered an XC50 of 496 nM.

As to `COc1ccc(CNCc2ccccc2)cc1-c1ccc(S(=O)(=O)NCCN2CCCC2)s1`, the XC50 came out at 674 nM.

Regarding `FC(F)(F)c1ccc2[nH]c(-c3ccc(-c4ccc(CN5CCN(c6ccncc6)CC5)cc4)cc3)nc2c1`, the XC50 came out at 62.4 nM.

Take `COc1ccccc1NC(=O)Nc1ccc(-c2ccc(-c3nc4cc(C(F)(F)F)ccc4[nH]3)cc2)cc1`: the XC50 is 544 nM.

The compound `COc1ccc2ncc(F)c(CCN3C4CCC3CC(NCc3cc5c(cn3)OCS5)C4)c2n1` (stereo unspecified) displayed an XC50 of 923 nM.

Compound `N=C(N)NCCN(Cc1ccccc1)c1ccc(Cl)cc1` returned an XC50 of 48 nM.

`CC(C)(C(=O)Nc1ccc(C2CCC(NCC3CC3)CC2)c(Cl)c1)c1ccc(C(F)(F)F)cc1` (stereo unspecified) returned an XC50 of 965 nM.

Take `CS(=O)(=O)Cc1ccc(Nc2ncc(Cl)c(Nc3cccnc3C(N)=O)n2)cc1`: the XC50 amounted to 868 nM.

`O=C(NCC1CCC(C(=O)NC2CCCc3ccccc32)CC1)c1ccc(O)c(-c2ccc(Cl)c(Cl)c2)c1` (stereo unspecified) returned an XC50 of 1020 nM.

As to `N#Cc1ccc2c(c1)CCN(CCC1CCC(NC(=O)c3cc4cccc(Cl)c4[nH]3)CC1)CC2` (stereo unspecified), the XC50 came out at 576 nM.

Compound `O=C(C=Cc1ccc(Cl)c(Cl)c1)NCCCCCN1CCC(CCNC(=O)c2cccc3ccccc23)CC1` registered an XC50 of 1590 nM.

On to `Cc1noc(C)c1-c1cccc(CNCc2ccc(-c3ccc(-c4nc5cc(C(F)(F)F)ccc5[nH]4)s3)cc2)c1`, for which the XC50 is 181 nM.

Regarding `Nc1nccc2ccc(-c3ccnc(NCc4cccnc4)n3)cc12`, the XC50 was determined as 462 nM.

`c1ccc(CN2CCC(NCc3ccc(-c4cncc5ccccc45)cc3)CC2)cc1` showed an XC50 of 877 nM.

For `CC1CN(c2ccnc3ccc(Sc4ccc(Oc5ccccc5)cc4)cc23)CC(C)N1` (stereo unspecified), the XC50 was 785 nM.

As for `O=C(NCC1CCC(CNCCCc2ccccc2)CC1)c1cc(Cl)cc(Cl)c1` (stereo unspecified), the XC50 came out at 846 nM.

On to `Fc1ccc2[nH]c(-c3ccc(-c4ccc(CN5CCN(c6cnccn6)CC5)cc4)s3)nc2c1`, for which the XC50 came out at 617 nM.

The compound `CN1CCCC(CN2CCN(Cc3ccc(-c4ccc(-c5nc6cc(F)ccc6[nH]5)cc4)cc3)CC2)C1` (stereo unspecified) gave an XC50 of 117 nM.

For `Cc1c2ccncc2c(C)c2c1[nH]c1cc(Cc3ccccc3)c(O)cc12`, the XC50 turned out to be 148 nM.

For `CC1C(c2cccc(Cl)c2)OCC(C)(C)N1C(=O)CCN1CCCCC1` (stereo unspecified), the XC50 was determined as 923 nM.

`O=C(c1cc(C(=O)Nc2ccccc2F)c(=O)n(-c2ccccc2F)c1)c1cc(Cl)ccc1O` had an XC50 of 705 nM.

The compound `Clc1ccc(Nc2nc(-c3ccccn3)cs2)nc1` displayed an XC50 of 774 nM.

The compound `O=C(Nc1ccccc1)N(Cc1ccc(-c2ccc(CNC3CCCC3)cc2)cc1)C1CCN(Cc2ccccc2)CC1` registered an XC50 of 408 nM.

`CCCCN(CCCC)C(=O)CC(O)c1cc2c(Cl)cc(Cl)cc2c2cc(C(F)(F)F)ccc12` (stereo unspecified) had an XC50 of 1210 nM.

Take `COc1ccc(Nc2ncc3c(-c4cccc(NC(=O)Cc5ccncc5)c4)c[nH]c3n2)cc1OC`: the XC50 worked out at 1230 nM.

In the case of `COc1cccc(C(=O)Nc2sc3c(c2C(N)=O)CCCC3)c1OC`, the XC50 is 932 nM.

With `N#Cc1cc(C(=O)Nc2ccccc2)c(N)nc1SCC(=O)NC(c1ccccc1)c1cccs1` (stereo unspecified), the XC50 amounted to 605 nM.

As to `FC(F)(F)c1ccc2[nH]c(-c3ccc(-c4ccc(CNCC5CCCO5)cc4)s3)nc2c1` (stereo unspecified), the XC50 is 158 nM.

On to `O=C(/C=C/c1ccc(Cl)c(Cl)c1)NCCCCCN1CCCN(C(=O)Nc2ccc(Br)cc2)CC1`, for which the XC50 came to 777 nM.

The compound `Nc1ccc(-c2nc3cc(Cc4ccc5[nH]c(-c6ccc(N)cc6)nc5c4)ccc3[nH]2)cc1` yielded an XC50 of 512 nM.

For the compound `Cc1cccc2nc(-c3ccc(-c4ccc(CNC(C)C)cc4)cc3)[nH]c12`, the XC50 was found to be 676 nM.

As to `COc1cccc(C2=CC(c3ccccc3)n3ncc(C(=O)Nc4ccc(Cl)cc4)c3N2)c1` (stereo unspecified), the XC50 was found to be 1060 nM.

`CC(C)CC1c2[nH]c3ccccc3c(=O)c2CN1C(=O)OC(C)(C)C` (stereo unspecified) had an XC50 of 221 nM.

For `CCCC[C@H](NC(=O)OC(C)(C)C)C(=O)Nc1ccc(Cc2ccc(NC(=O)[C@H](CCCC)NC(=O)OC(C)(C)C)cc2)cc1`, the XC50 came out at 733 nM.

For `O=C(Nc1ccc(-c2cccc(-c3nc4cc(C(F)(F)F)ccc4[nH]3)c2)cc1)c1csnn1`, the XC50 was 802 nM.

On to `CN1CCC(NCCS(=O)(=O)c2cccc(Nc3ccc(-c4cccc(F)c4)cn3)c2)CC1`, for which the XC50 stood at 1360 nM.

Take `CCCc1cccc(OC)c1OCCCON1C(N)=NC(N)=NC1(C)C`: the XC50 stood at 3.2 nM.

As for `CN(Cc1ccccc1)C(=O)c1nn(CCCN2CCC(N3CCCC3)CC2)cc1-c1ccc(Cl)c(Cl)c1`, the XC50 came to 767 nM.

Compound `O=C(Nc1ccc(-c2cccc(-c3nc4ccccc4[nH]3)c2)cc1)NC1CC1c1ccccc1` (stereo unspecified) showed an XC50 of 630 nM.

Turning to `O=C(Nc1ccc(S(=O)(=O)N2CCCC2)cc1)c1cc(-c2cccnc2)nc2ccc(Cl)cc12`, the XC50 turned out to be 300 nM.

In the case of `CN1CCN(c2ccnc3ccc(NC(=O)Nc4c(Cl)cccc4Cl)cc23)CC1`, the XC50 came to 877 nM.

Compound `CN1CCN(c2nsc3ccc(-c4ccc(NC(=O)Nc5cc(C(F)(F)F)ccc5F)cc4)cc23)CC1` displayed an XC50 of 245 nM.

On to `CC(=O)Nc1cccc(C(=O)Nc2cccc(-c3csc(-c4nc5ccccc5[nH]4)c3)c2)c1`, for which the XC50 came to 181 nM.

Regarding `Cc1nc(C)c(-c2ccc(C(=O)c3ccc(Cl)cc3)cc2)c(O)c1Br`, the XC50 stood at 810 nM.

Regarding `O=C(CNc1ccc(Cl)c(S(=O)(=O)N2CCCC2)c1)Nc1ccc(Br)cc1F`, the XC50 worked out at 321 nM.

The compound `CC(C)CNCc1cccc(-c2ccccc2CNC2CCN(Cc3ccccc3)CC2)c1` yielded an XC50 of 579 nM.

`CC(C)(C)C(=O)Nc1ccc(C(=O)Nc2cccc(-c3nc4ccccc4[nH]3)c2)cc1` returned an XC50 of 282 nM.

With `CC(C)CCN1CCCN(Cc2ccc(C(=O)Nc3ccc(Cl)cc3)cc2)CC1`, the XC50 was found to be 796 nM.

Compound `O=C(/C=C/c1ccc(Cl)c(Cl)c1)N1CCCC(CCCN2CCC(c3c[nH]c4ccccc34)CC2)C1` (stereo unspecified) registered an XC50 of 1090 nM.

Compound `Cc1cc(NC(=O)NCCN2CCC(NS(=O)(=O)c3ccccc3F)CC2)c2ccccc2n1` came in with an XC50 of 949 nM.

The compound `CN1CCN(CCCCCNc2c3ccccc3nc3ccccc23)CC1` displayed an XC50 of 741 nM.

For `CCCN(Cc1nnc(-c2cccs2)o1)C(=O)CSc1nnnn1-c1cc(C)cc(C)c1`, the XC50 worked out at 500 nM.

Compound `Cn1nc(C(F)(F)F)c(-c2ccc(Br)cc2)c1NC(=O)Cc1ccccc1F` displayed an XC50 of 157 nM.
